The nature of data set [1]: in vitro. Particulars: human, microsomes.
Data set [2] can be described thus: in vitro. As to conditions: mouse, microsomes.
The nature of data set [3]: in vivo. As to conditions: rat, po, 10 mg/kg.
The nature of data set [4]: in vivo. As to conditions: rat, po, 10 mg/kg. The source holds these as a separate data set.
Data set [5] can be described thus: in vivo. As to conditions: rat, iv, 1 mg/kg.
Data set [6] in a line: in vivo. As to conditions: rat, po, 10 mg/kg. The source holds these as a separate data set.
Data set [7] in a line: in vivo. Particulars: rat, iv, 1 mg/kg. This is another data set of the same source.
Data set [8] is described as follows: in vivo. Particulars: rat, iv, 10 mg/kg.
The nature of data set [9]: in vivo. As to conditions: rat, po, 10 mg/kg. This is another data set of the same source.
Data set [10] is described as follows: in vivo. Particulars: rat, iv, 1 mg/kg. This is another data set of the same source.
Data set [11] can be described thus: in vitro. Particulars: rat, liver microsomes. Background: Liver microsomes are vesicles of endoplasmic reticulum, rich in cytochrome P450 enzymes.
Data set [12] is described as follows: in vivo. As to conditions: rat, iv, 1 mg/kg. The source holds these as a separate data set.

One may read the share remaining as the share of the starting amount still present when the sample was taken. A lower share remaining goes with a greater loss. In the case of `CC(C)Oc1ccc(-n2cc(-c3ccc(CN4CC(C(=O)O)C4)cc3)nn2)cc1Cl`, the amount remaining at 0.5 h, 1 µM in data set [1] is 98.5%; in [2] it was greater than 99%.

Regarding `CC(C)Oc1ccc(C2CC(c3ccc(CN4CCC(C(=O)O)CC4)cc3)=NO2)cc1Cl` (stereo not given), the values for the fraction remaining at 0.5 h, 1 µM in [1] and in [2] were 73.5% and 84.5%, respectively.

By Tmax is commonly meant the time from dosing to the highest level. One may read the Cmax as the maximum level reached in the sampled fluid or tissue. By clearance is commonly meant the rate of elimination divided by the concentration. High values mean a high capacity for elimination, low ones a low capacity for elimination. As a reminder, the bioavailability is the share of a dose that reaches the circulation, judged against a reference dose that is usually intravenous. One may read the half-life as the time needed for the level to fall by half in the phase considered. As a reminder, the AUC(0-inf) is the area under the concentration-time curve extrapolated to infinity. A high value points to high exposure. For orientation: Vd means the apparent volume that relates the amount in the body to the concentration in plasma or blood. In the case of `CC(C)(C)c1ccc(C2CC(c3ccc(CN4CC(C(=O)[O-])C4)cc3)=NO2)cc1.[Na+]` (stereo not given), in data set [3], the Tmax amounted to 2.3 h. In data set [4], the Cmax amounted to 1070 ng/mL. Moreover, the figures for the amount remaining at 0.5 h, 1 µM in data set [1], in data set [2] and in [11] were 93.8%, 96.7% and 95.1%, respectively. The clearance in data set [5] is 13.1 mL/min/kg. This compound yielded a bioavailability in data set [6] of 44.9%. Also, the half-life was 2.4 h in data set [7] and 3.1 h in [9]. Also, the values for the AUC(0-inf) in data set [8] and in data set [10] were 5190 ng·h/mL and 1160 ng·h/mL, respectively. In data set [12], this compound gave a Vd of 2.6 L/kg.

For `COC(=O)C1CN(Cc2ccc(-c3cn(-c4ccc(OC(C)C)c(Cl)c4)nn3)cc2)C1`, the fraction remaining at 0.5 h, 1 µM in data set [1] was 24.1%; in [2], 28.8%.

For the compound `COC(=O)C1CN(Cc2ccc(-n3cc(-c4ccc(OC(C)C)c(Cl)c4)nn3)cc2)C1`, the fraction remaining at 0.5 h, 1 µM in [1] is 23.2%; in data set [2], 19%.

(Values after ChEMBL document CHEMBL5154711, “Discovery of Novel Sphingosine-1-Phosphate-1 Receptor Agonists for the Treatment of Multiple Sclerosis” (J Med Chem, 2022).)
